Three molecules from paper PMC6270359, “Cholinesterase Enzymes Inhibitors from the Leaves of Rauvolfia Reflexa and Their Molecular Docking Study” (Molecules, 2013) can be followed below.

Experiment [1] addresses T1, acetylcholinesterase from electric eel (AChE) (Electrophorus electricus, UniProt O42275).
T1 construct: purchased Sigma Chemicals (St. Louis, MO, USA)
In words: Acetylcholinesterase inhibitory assay (Ellman's microplate assay). It counts as biochemical. Conditions: for IC50: Mean ± SD (n = 3). How it is done: (§1) Acetylthiocholine iodide (ATCl), acetylcholinesterase from electric eel (AChE), 5,5'-dithiobis[2-nitrobenzoic acid] […] All the other reagents used were of analytical grade.
(§2) Cholinesterase enzymes inhibitory potential of test samples was evaluated using Ellman’s microplate assay following the method described by Ahmed and Gilani with slight modifications. […] The concentration of DMSO in final reaction mixture was 1%.
(§3) For acetylcholinesterase (AChE) inhibitory assay, 140 μL of 0.1 M sodium phosphate buffer (pH 8) was first added to a 96-wells microplate followed by 20 μL of test samples and 20 μL of 0.09 units/mL acetylcholinesterase enzyme. After 15 min of pre-incubation at 25 °C, 10 μL of 10 mM 5,5'-dithiobis (2-nitrobenzoic acid) was added into each well, followed by 10 μL of 14 mM acetylthiocholine iodide. After the initiation of enzymatic reaction, absorbance of the coloured end-product was measured for 15 min using Tecan Infinite 200 Pro Microplate Spectrophotometer (Männedorf, Switzerland) at 417 nm.
(§4) For butyrylcholinesterase (BChE) inhibitory assay, the same procedures as described above were followed except for the use of enzyme and substrate, which were BChE from equine serum and S-butyrylthiocholine chloride, respectively. Each test was conducted in triplicate. Absorbencies of the test samples were corrected by subtracting the absorbance of their respective blank. […] Percentage inhibition was calculated using the following formula: Percentage inhibition (%) = Absorbance of control - Absorbance of test sample/Absorbance of control×100%
For orientation: In Ellman's method for cholinesterases, released thiocholine reacts with DTNB.

The target in experiment [2] is T2, butyrylcholinesterase from equine serum (BChE) (Equus caballus, UniProt P81908).
T2 construct: purchased Sigma Chemicals (St. Louis, MO, USA); host or cells: equine serum
Kind of experiment: Butyrylcholinesterase inhibitory assay (Ellman's microplate assay). It counts as biochemical. How it is done:
as §1, §2, §3, §4

Where [3] appears, read: isolated chemical constituents at 10 μg/mL, initial screening.
The mark [4] stands for this setting: chemical constituents, read-out: AChE inhibition, IC50 (converted).

Values joined by “and” are separate entries in the source; they are usually repeats but may differ in a detail not shown here. Equal values may be shown once. Read-outs that look alike come from different tables or passages of the source.

T1 sequence (O42275 24-633): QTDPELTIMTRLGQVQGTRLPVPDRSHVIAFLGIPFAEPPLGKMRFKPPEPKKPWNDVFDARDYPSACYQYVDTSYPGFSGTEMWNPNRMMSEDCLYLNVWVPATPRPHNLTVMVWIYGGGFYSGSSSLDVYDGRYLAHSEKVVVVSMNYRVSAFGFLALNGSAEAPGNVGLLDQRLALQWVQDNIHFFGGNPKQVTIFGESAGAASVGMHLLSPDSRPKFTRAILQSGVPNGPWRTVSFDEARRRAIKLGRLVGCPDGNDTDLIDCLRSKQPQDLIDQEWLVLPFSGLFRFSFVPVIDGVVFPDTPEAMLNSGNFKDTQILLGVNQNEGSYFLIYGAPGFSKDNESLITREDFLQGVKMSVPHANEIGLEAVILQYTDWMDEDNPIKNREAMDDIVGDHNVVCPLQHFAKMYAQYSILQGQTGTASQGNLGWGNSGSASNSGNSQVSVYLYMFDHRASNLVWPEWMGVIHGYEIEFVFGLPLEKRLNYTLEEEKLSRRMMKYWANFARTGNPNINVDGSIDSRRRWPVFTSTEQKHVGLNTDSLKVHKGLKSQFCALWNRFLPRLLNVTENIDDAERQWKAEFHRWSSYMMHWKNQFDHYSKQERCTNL
T2 sequence (P81908 whole entry): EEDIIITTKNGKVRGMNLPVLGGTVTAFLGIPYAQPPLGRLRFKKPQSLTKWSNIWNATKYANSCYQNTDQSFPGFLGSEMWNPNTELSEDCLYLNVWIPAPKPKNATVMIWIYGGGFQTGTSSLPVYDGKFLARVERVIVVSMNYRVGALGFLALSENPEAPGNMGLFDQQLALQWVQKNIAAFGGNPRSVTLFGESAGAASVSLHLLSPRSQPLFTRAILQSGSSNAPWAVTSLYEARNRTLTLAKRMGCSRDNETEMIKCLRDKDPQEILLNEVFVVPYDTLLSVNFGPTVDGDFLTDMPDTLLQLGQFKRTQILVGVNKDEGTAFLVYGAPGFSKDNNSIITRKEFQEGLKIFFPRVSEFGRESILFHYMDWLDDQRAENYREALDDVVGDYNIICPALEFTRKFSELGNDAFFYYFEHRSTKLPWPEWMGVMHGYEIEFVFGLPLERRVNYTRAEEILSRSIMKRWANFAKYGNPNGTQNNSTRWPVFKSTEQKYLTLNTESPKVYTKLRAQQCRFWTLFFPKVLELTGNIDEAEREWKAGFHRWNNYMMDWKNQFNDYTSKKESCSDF

Broadly, the IC50 is the concentration needed to halve the response being measured. `COc1cc(/C=C/C(=O)O)cc(OC)c1OC` [Compound 1, (E)-3-(3,4,5-Trimethoxyphenyl) acrylic acid]: the half-inhibitory concentration (IC50) is 60.1 µM in experiment [1] (AChE inhibition, IC50, chemical constituents) and 60.2 ± 14.4 µM in experiment [1] (read-out: AChE inhibition, IC50, chemical constituents). Further, the AChE inhibition result in experiment [1] (setting [3]) is listed as “much lower inhibition”.
In general, inhibition refers to the share of the control response that was lost under treatment. Read a high inhibition as a response far below the control. Take `COC(=O)/C=C/c1cc(OC)c(O)c(OC)c1` [Compound 2, (E)-methyl 3-(4-hydroxy-3,5-dimethoxyphenyl) acrylate]: in experiment [1] (chemical constituents, IC50(BChE)/IC50(AChE)), the “Selectivity for AChE” value is reported as 0.39. In addition, the IC50 in experiment [1] (setting [4]) is 158 µM; in experiment [2] (chemical constituents, Mean ± SD (n = 3), read-out: BChE inhibition, IC50 (converted)), 61.7 µM. Also, the inhibition at 10 µg/mL turned out to be 40.4% in experiment [1] (setting [3]) and 91.3% in experiment [2] (setting [3]). For the same molecule, the “Selectivity for BChE” value in experiment [2] (chemical constituents, IC50(AChE)/IC50(BChE)) stood at 2.56.
Turning to `O=C1NCCc2c1[nH]c1ccccc21` [Compound 4, 1,2,3,4-Tetrahydro-1-oxo-β-carboline], the 50% inhibitory concentration (IC50) in experiment [1] (setting [4]) was 83.3 µM and 83.4 µM. In experiment [1] (setting [3]), this molecule displayed an inhibition at 10 µg/mL of 41.3%.
